Assay results as given in ChEMBL document CHEMBL5614421, “Structure-activity relationship study of Pseudellone C as anti-glioma agents by targeting TNF/TNFR signaling pathway” (Eur J Med Chem, 2024).
Activity calls are given as the source filed them. The rule behind the calls is not given here.

Key:
[1] = test system: LN-229; assay: Induction of apoptosis in human LN-229 cells assessed as late apoptotic cells at 20 uM incubated for 24 hrs in presence of R7050 by Annexin V-APC/7-AAD staining based flow cytometric analysis (reference value: 4.86 %); type: functional
[2] = test system: LN-229; assay: Induction of apoptosis in human LN-229 cells assessed as early apoptotic cells at 20 uM incubated for 24 hrs by Annexin V-APC/7-AAD staining based flow cytometric analysis (reference value: 0.91 %); type: functional
[3] = test system: U-87 MG; assay: Induction of apoptosis in human U-87 MG cells assessed as early apoptotic cells at 20 uM incubated for 24 hrs by Annexin V-APC/7-AAD staining based flow cytometric analysis (reference value: 0.94 %); type: functional, U-87MG ATCC
[4] = test system: LN-229; assay: Induction of apoptosis in human LN-229 cells assessed as late apoptotic cells at 20 uM incubated for 24 hrs by Annexin V-APC/7-AAD staining based flow cytometric analysis (reference value: 3.56 %); type: functional
[5] = test system: LN-229; assay: Induction of apoptosis in human LN-229 cells assessed as necrotic cells at 20 uM incubated for 48 hrs by Annexin V-APC/7-AAD staining based flow cytometric analysis (reference value: 0.7 %); type: functional
[6] = test system: LN-229; assay: Induction of apoptosis in human LN-229 cells assessed as reduction in Bcl-2/Bax ratio at 5 to 20 uM incubated for 24 hrs by Western blot analysis; type: functional, cell-based; settings: dose 5-20 µM
[7] = test system: U-87 MG; assay: Induction of apoptosis in human U-87 MG cells assessed as viable cells at 20 uM incubated for 24 hrs by Annexin V-APC/7-AAD staining based flow cytometric analysis (reference value: 85 %); type: functional, U-87MG ATCC; settings: read-out: Activity
[8] = test system: LN-229; assay: Induction of apoptosis in human LN-229 cells assessed as viable cells at 20 uM incubated for 24 hrs in presence of R7050 by Annexin V-APC/7-AAD staining based flow cytometric analysis (reference value: 92.3 %); type: functional; settings: read-out: Activity
[9] = test system: U-87 MG; assay: Induction of apoptosis in human U-87 MG cells assessed as viable cells at 20 uM incubated for 24 hrs by Annexin V-APC/7-AAD staining based flow cytometric analysis (reference value: 94.6 %); type: functional, U-87MG ATCC; settings: read-out: Activity
[10] = test system: U-87 MG; assay: Induction of apoptosis in human U-87 MG cells assessed as viable cells at 5 uM incubated for 24 hrs by Annexin V-APC/7-AAD staining based flow cytometric analysis (reference value: 94 %); type: functional, U-87MG ATCC; settings: read-out: Activity
[11] = test system: U-87 MG; assay: Induction of apoptosis in human U-87 MG cells assessed as reduction in Bcl-2/Bax ratio at 5 to 20 uM incubated for 24 hrs by Western blot analysis; type: functional, cell-based; settings: U-87MG ATCC, dose 5-20 µM
[12] = test system: LN-229; assay: Induction of apoptosis in human LN-229 cells assessed as viable cells at 20 uM incubated for 48 hrs by Annexin V-APC/7-AAD staining based flow cytometric analysis (reference value: 91.7 %); type: functional; settings: read-out: Activity
[13] = test system: LN-229; assay: Induction of apoptosis in human LN-229 cells assessed as viable cells at 10 uM incubated for 24 hrs by Annexin V-APC/7-AAD staining based flow cytometric analysis (reference value: 95.4 %); type: functional; settings: read-out: Activity
[14] = test system: LN-229; assay: Induction of apoptosis in human LN-229 cells assessed as necrotic cells at 20 uM incubated for 12 hrs by Annexin V-APC/7-AAD staining based flow cytometric analysis (reference value: 0.7 %); type: functional
[15] = test system: U-87 MG; assay: Induction of apoptosis in human U-87 MG cells assessed as viable cells at 20 uM incubated for 12 hrs by Annexin V-APC/7-AAD staining based flow cytometric analysis (reference value: 94.6 %); type: functional, U-87MG ATCC; settings: read-out: Activity
[16] = test system: LN-229; assay: Induction of apoptosis in human LN-229 cells assessed as late apoptotic cells at 20 uM incubated for 24 hrs by Annexin V-APC/7-AAD staining based flow cytometric analysis (reference value: 5.1 %); type: functional
[17] = test system: LN-229; assay: Induction of apoptosis in human LN-229 cells assessed as necrotic cells at 20 uM incubated for 24 hrs by Annexin V-APC/7-AAD staining based flow cytometric analysis (reference value: 1.95 %); type: functional
[18] = test system: LN-229; assay: Induction of apoptosis in human LN-229 cells assessed as viable cells at 20 uM incubated for 12 hrs by Annexin V-APC/7-AAD staining based flow cytometric analysis (reference value: 91.7 %); type: functional; settings: read-out: Activity
[19] = test system: LN-229; assay: Induction of apoptosis in human LN-229 cells at 10 uM incubated for 48 hrs by Annexin V-APC/7-AAD staining based flow cytometric analysis (reference value: 7.32 +/- 0.71 %); type: functional
[20] = test system: U-87 MG; assay: Induction of apoptosis in human U-87 MG cells assessed as necrotic cells at 20 uM incubated for 24 hrs by Annexin V-APC/7-AAD staining based flow cytometric analysis (reference value: 0.21 %); type: functional, U-87MG ATCC
[21] = test system: U-87 MG; assay: Induction of apoptosis in human U-87 MG cells assessed as necrotic cells at 20 uM incubated for 12 hrs by Annexin V-APC/7-AAD staining based flow cytometric analysis (reference value: 1 %); type: functional, U-87MG ATCC
[22] = test system: LN-229; assay: Induction of apoptosis in human LN-229 cells assessed as viable cells at 20 uM incubated for 24 hrs by Annexin V-APC/7-AAD staining based flow cytometric analysis (reference value: 91.7 %); type: functional; settings: read-out: Activity
[23] = test system: U-87 MG; assay: Induction of apoptosis in human U-87 MG cells assessed as upregulation of cleaved caspase-3 expression incubated for 24 hrs by Western blot analysis; type: functional, cell-based; settings: U-87MG ATCC
[24] = test system: U-87 MG; assay: Induction of apoptosis in human U-87 MG cells assessed as necrotic cells at 20 uM incubated for 24 hrs by Annexin V-APC/7-AAD staining based flow cytometric analysis (reference value: 1 %); type: functional, U-87MG ATCC
[25] = test system: LN-229; assay: Induction of apoptosis in human LN-229 cells assessed as late apoptotic cells at 20 uM incubated for 12 hrs by Annexin V-APC/7-AAD staining based flow cytometric analysis (reference value: 5.1 %); type: functional
[26] = test system: U-87 MG; assay: Induction of apoptosis in human U-87 MG cells assessed as late apoptotic cells at 20 uM incubated for 24 hrs by Annexin V-APC/7-AAD staining based flow cytometric analysis (reference value: 3.44 %); type: functional, U-87MG ATCC
[27] = test system: LN-229; assay: Induction of apoptosis in human LN-229 cells assessed as viable cells at 20 uM incubated for 24 hrs by Annexin V-APC/7-AAD staining based flow cytometric analysis (reference value: 95.4 %); type: functional; settings: read-out: Activity
[28] = test system: U-87 MG; assay: Induction of apoptosis in human U-87 MG cells assessed as late apoptotic cells at 5 uM incubated for 24 hrs by Annexin V-APC/7-AAD staining based flow cytometric analysis (reference value: 4.22 %); type: functional, U-87MG ATCC
[29] = test system: U-87 MG; assay: Induction of apoptosis in human U-87 MG cells assessed as viable cells at 20 uM incubated for 48 hrs by Annexin V-APC/7-AAD staining based flow cytometric analysis (reference value: 94.6 %); type: functional, U-87MG ATCC; settings: read-out: Activity
[30] = test system: LN-229; assay: Induction of apoptosis in human LN-229 cells at 20 uM incubated for 24 hrs in presence of R7050 by Annexin V-APC/7-AAD staining based flow cytometric analysis relative to control; type: functional
[31] = test system: U-87 MG; assay: Induction of apoptosis in human U-87 MG cells assessed as necrotic cells at 20 uM incubated for 48 hrs by Annexin V-APC/7-AAD staining based flow cytometric analysis (reference value: 1 %); type: functional, U-87MG ATCC

Structure (SMILES): CCCCCCCNC(=O)[C@H](Cc1c[nH]c2ccccc12)NC(=O)C(C)(c1c[nH]c2ccccc12)c1c[nH]c2ccccc12
- Activity [1]: 5.88%
- Activity [2]: 24.2%
- Activity [3]: 2.6%
- Activity [4]: 4.99%
- Activity [5]: 1.9%
- Activity [6]: Active
- viability at 20 µM [7]: 65.1%
- viability at 20 µM [8]: 91.4%
- viability at 20 µM [9]: 92%
- viability at 5 µM [10]: 92.9%
- Activity [11]: Active
- viability at 20 µM [12]: 37.7%
- viability at 10 µM [13]: 88.1%
- Activity [14]: 1.45%
- viability at 20 µM [15]: 93.8%
- Activity [16]: 4.38%
- Activity [17]: 1.94%
- viability at 20 µM [18]: 92.7%
- Activity [19]: 61.42%
- Activity [20]: 0.47%
- Activity [21]: 1.01%
- viability at 20 µM [22]: 81.7%
- Activity [23]: Dose-Dependent Effect
- Activity [24]: 1.37%
- Activity [25]: 4.06%
- Activity [26]: 4.03%
- viability at 20 µM [27]: 79.8%
- Activity [28]: 4.92%
- viability at 20 µM [29]: 78.7%
- Activity [30]: 22.79%
- Activity [31]: 4.65%
